Key:
[1] = test system: bitter taste perception of 48 Caucasian subjects; experiment: Human psychophysical bitter taste tests (4-AFC recognition thresholds, gLMS intensity ratings); assay type: in vivo; details: for concentration perceived as weakly bitter, fold range across subjects / concentration perceived as weakly bitter, mode: gLMS weak intensity; for concentration perceived as strongly bitter, fold range across subjects / concentration perceived as strongly bitter, mode: gLMS strong intensity
Protocol: All were pre-screened to avoid inclusion of individuals with health problems and overt taste pathologies; pregnant and breast-feeding women were also excluded. Each subject participated in the entire course of the study, which included one training session and nine experimental sessions. Visits consisted of DNA collection and psychophysical tests for genotyping and phenotypic analyses, respectively. General taste abilities were also assessed for the bitter, salty, sour, and sweet taste during the first session.
Experiments were conducted at the sensory analysis laboratory of the German Institute of Human Nutrition Potsdam-Rehbruecke, according to good practice guidelines. […] Perceived bitter taste intensities were rated on the general Labelled Magnitude Scale (gLMS; [72–74]). […] For each 4-AFC test, four coded samples containing 10 ml solution were presented simultaneously; one containing the bitter tastant diluted in mineral water (Evian; Danone, Paris, France) and three containing mineral water only. At each concentration, subjects were challenged to identify the different sample, specify whether the quoted sample tasted bitter, and rate the perceived bitter intensity. Tests were performed with nose clips and oral rinsing, with a 45 s pause between concentrations. Training sessions were first used to familiarize subjects with the experimental procedures, and secondly, to assess general taste abilities. Concentration series consisted of geometric sequences of […], with a 1.5 common ratio and the following concentration ranges: 3.5x10^-5–2.0x10^-3M, 6.9x10^-4–4.0x10^-2 M, 2.6x10^-4–1.5x10^-2 M, 6.9x10^-4–4.0x10^-2 M, for salicin, sodium chloride, citric acid, and sucrose used as reference tastants for bitter, salty, sour, and sweet taste, respectively. Following training, subjects tested each tastant in triplicate over nine sessions. Latin square designs extended for first-order carry-over effects were used to counterbalance presentation order of the test compounds over the test sessions, across subjects and for each test compound, as well as presentation order of the samples at each concentration across both repetitions and subjects. Sensory sessions were monitored and data automatically collected (Fizz; Biosystèmes, Couternon, France).
Detection and recognition probabilities of the bitter samples were analysed per repetition and subject. Relationships between probabilities (detection or recognition probabilities) and concentrations were fitted by a logistic regression model using the maximum-likelihood method. Threshold value and slope of the logistic curves were then obtained per repetition and subject, using a self-implemented toolbox (Matlab; The MathWorks Inc.). […] Where required, outliers were discarded according to the Peirce’s criterion. Perceived intensities, expressed in percentage of the scale length, were analysed similarly.

[2] = test system: TAS2R30-H1; experiment: Calcium imaging in HEK 293T Gα16gust44 cells transfected with TAS2R30-H1; assay type: cell-based, human; details: for threshold: first concentration eliciting significant receptor activation
Source text: (§1) Allelic responses to agonists were quantified using in vitro heterologous expression assays designed in previous studies of TAS2R receptor function, which successfully mimic responses in vivo with respect to both magnitude and concentration range [17, 23, 25, 26, 46]. DNA fragments containing TAS2R coding sequences were first amplified from genomic DNA by PCR using a proofreading polymerase (PfuUltra II Fusion HotStart DNA Polymerase; Agilent Technologies, Santa Clara, CA, USA) and cloned into a plasmid vector according to the manufacturer’s protocol (Zero Blunt TOPO PCR Cloning Kit; Life Technologies). A second PCR was performed using specific cloning primers to facilitate subcloning into the expression vector, which was then modified to add an N-terminal signal for cell surface localisation and a C-terminal epitope for immunocytochemical detection to the receptor sequence (Fast Link DNA Ligation Kit; Epicentre, Illumina Inc., Madison, WI, USA) (pcDNA5/FRT Mammalian Expression Vector; Life Technologies). Empty vector was used as a negative control.
(§2) Functional assays were carried out in HEK 293T cells stably expressing the G protein chimera Gα16gust44 and transiently transfected with TAS2R alleles subcloned into the expression vector [78]. Calcium imaging was performed using an automated fluorometric imaging plate reader by exposing transfected cells to test compounds dissolved in assay buffer or to assay buffer alone (FLIPR Tetra; Molecular Devices, LLC, Sunnyvale, CA, USA). Changes in cytosolic calcium levels were monitored by measuring fluorescence intensity of a calcium-sensitive dye previously added (Fluo-4 AM; Life Technologies). Six replicates were carried out for each bitter stimulus, on separate experimental days, with each replicate consisting of concentration series of each bitter tastant.
(§3) Prior to final analysis, fluorescence data from functional assays, expressed in relative fluorescence units (RFU), underwent three corrections. First, a correction calculated from baseline values was applied to compensate for well-to-well fluctuations. A second correction calculated from negative control values was applied to correct for receptor independent artefacts and signal drift. A third correction calculated from positive control values was applied to facilitate comparison of data obtained from different experimental days. Fluorescence ratios ((F-F0)/F0), obtained by subtracting the background fluorescence from fluorescence peak height and then dividing the difference by the background fluorescence, were then used for data analysis. Variance analyses were performed, followed by Bonferroni multiple comparisons tests (SPSS 20; IBM Corporation, Armonk, NY, USA). Threshold response values were then defined as the first concentration eliciting a significant activation of the receptor, with empty vector acting as a negative control. Finally, dose-response curves were fitted to the Hill equation by nonlinear regression in order to determine half maximal effective concentrations (EC50) and maximal amplitude (SigmaPlot; Systat Software Inc., Chicago, IL, USA).

[3] = test system: TAS2R30-H2; experiment: Calcium imaging in HEK 293T Gα16gust44 cells transfected with TAS2R30-H2; assay type: cell-based, human; details: for threshold: first concentration eliciting significant receptor activation
Source text: as §1, §2, §3

[4] = biological target: T1, TAS2R46-H1 (Homo sapiens, UniProt P59540); experiment: Calcium imaging in HEK 293T Gα16gust44 cells transfected with TAS2R46-H1; assay type: cell-based; details: for threshold: first concentration eliciting significant receptor activation
T1 construct: N-terminal signal for cell surface localisation (N); expressed in transfected cells; host or cells: HEK 293T cells stably expressing the G protein chimera Gα16gust44
T1 sequence (P59540 1-309): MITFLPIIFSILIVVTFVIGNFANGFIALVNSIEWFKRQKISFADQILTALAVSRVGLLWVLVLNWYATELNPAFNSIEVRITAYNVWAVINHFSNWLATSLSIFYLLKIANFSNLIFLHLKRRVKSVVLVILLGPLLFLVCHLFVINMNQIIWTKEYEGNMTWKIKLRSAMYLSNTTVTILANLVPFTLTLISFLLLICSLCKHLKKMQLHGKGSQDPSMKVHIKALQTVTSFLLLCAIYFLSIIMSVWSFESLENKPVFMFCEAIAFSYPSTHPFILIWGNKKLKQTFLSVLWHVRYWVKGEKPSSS
Source text: as §1, §2, §3

[5] = biological target: T2, TAS2R46-H2 (Homo sapiens, UniProt P59540); experiment: Calcium imaging in HEK 293T Gα16gust44 cells transfected with TAS2R46-H2; assay type: cell-based; details: TAS2R46-H2, truncated variant (premature stop codon)
T2 construct: TAS2R46-H2, a truncated, six-transmembrane variant of the receptor; N-terminal signal for cell surface localisation (N); expressed in transfected cells; host or cells: HEK 293T cells stably expressing the G protein chimera Gα16gust44
T2 sequence (P59540 1-249 limits assumed): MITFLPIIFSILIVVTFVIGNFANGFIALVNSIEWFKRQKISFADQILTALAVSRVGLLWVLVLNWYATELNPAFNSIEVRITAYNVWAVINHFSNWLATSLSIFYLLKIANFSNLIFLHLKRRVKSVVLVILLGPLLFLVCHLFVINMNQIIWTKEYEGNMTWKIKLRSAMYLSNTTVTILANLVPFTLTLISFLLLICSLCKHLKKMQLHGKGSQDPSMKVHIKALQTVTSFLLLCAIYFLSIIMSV
Source text: as §1, §2, §3

[6] = test system: TAS2R46-H3; experiment: Calcium imaging in HEK 293T Gα16gust44 cells transfected with TAS2R46-H3; assay type: cell-based, human; details: for threshold: first concentration eliciting significant receptor activation
Source text: as §1, §2, §3

[7] = test system: TAS2R30, -31, -43, and -46; experiment: Calcium imaging functional assays, statements across TAS2R loci (variants not resolved); assay type: cell-based, human
Source text: as §1
as §2, with “Six replicates were carried out for each bitter stimulus, on separate experimental days, with each replicate consisting of concentration series of each bitter tastant.” left out
Prior to final analysis, fluorescence data from functional assays, expressed in relative fluorescence units (RFU), underwent three corrections. First, a correction calculated from baseline values was applied to compensate for well-to-well fluctuations. A second correction calculated from negative control values was applied to correct for receptor independent artefacts and signal drift. […]

[8] = test system: TAS2R43-H1; experiment: Calcium imaging in HEK 293T Gα16gust44 cells transfected with TAS2R43-H1; assay type: cell-based, human; details: for threshold: first concentration eliciting significant receptor activation
Source text: as §1, §2
as §3, with “Threshold response values were then defined as the first concentration eliciting a significant activation of the receptor, with empty vector acting as a negative control. Finally, dose-response curves were fitted to the Hill equation by nonlinear regression in order to determine half maximal effective concentrations (EC50) and maximal amplitude (SigmaPlot; Systat Software Inc., Chicago, IL, USA).” left out

[9] = test system: TAS2R43-H2; experiment: Calcium imaging in HEK 293T Gα16gust44 cells transfected with TAS2R43-H2; assay type: cell-based, human; details: for threshold: first concentration eliciting significant receptor activation
Source text: as §1, §2
as §3, with “Threshold response values were then defined as the first concentration eliciting a significant activation of the receptor, with empty vector acting as a negative control. Finally, dose-response curves were fitted to the Hill equation by nonlinear regression in order to determine half maximal effective concentrations (EC50) and maximal amplitude (SigmaPlot; Systat Software Inc., Chicago, IL, USA).” left out

[10] = test system: every known TAS2R in humans; design: method as in PMID 20022913; details: complete TAS2R family; cited from earlier work

| Compound | recognition threshold, fold range across subjects ([1]; 48 human subjects) [fold] | concentration perceived as weakly bitter, fold range across subjects [1] [fold] | receptor variant response [2] | receptor variant response [4] | receptor variant response [5] | receptor variant response [6] | concentration perceived as strongly bitter, fold range across subjects [1] | concentration perceived as strongly bitter, mode [1] [µM] | concentration perceived as weakly bitter, mode [1] [nM] | threshold [8] [µM] | threshold [9] [µM] | EC50 [4] [µM] | maximum amplitude [4] | threshold [4] [µM] | EC50 [6] [µM] | maximum amplitude [6] | threshold [6] [µM] | TAS2Rs responsive in published receptor-agonist inventory [10] | EC50 [2] [µM] | maximum amplitude [2] | also measured |
| --- | --- | --- | --- | --- | --- | --- | --- | --- | --- | --- | --- | --- | --- | --- | --- | --- | --- | --- | --- | --- | --- |
| CC(=O)O[C@@H]1C[C@]2(C)[C@H](CC[C@@H](O)[C@]2(C)O)[C@@](C=O)(C[C@@H](O)c2ccoc2)[C@@H]1C [cascarillin] | 17 | 11 | sensitive | sensitive | insensitive | intermediate |  |  |  |  |  |  |  |  |  |  |  |  |  |  | receptor variant response [3]: insensitive; minimum concentration required to elicit response in functional assays ([7]; TAS2R30 and -46 variants): 30 µM |
| C=C1C(=O)O[C@H]2[C@H]1[C@@H](O)CC(=C)[C@@H]1CC(=O)[C@@H](C)[C@H]21 [grosheimin] | 25 | 17 |  |  | not activated at any concentration |  | 5 fold | 33 | 15000 | 10 | 3 | 5.6 | 0.87 ΔF/F | 1 | 7.6 | 0.50 ΔF/F | 3 | only TAS2R43 and -46 |  |  | EC50 [8]: 16 µM; maximum amplitude [8]: 0.60 ΔF/F; EC50 [9]: 6.9 µM; maximum amplitude [9]: 0.81 ΔF/F |
| amarogentin |  | 17 |  |  | not activated at any concentration |  | less than 4 fold |  | 50 | 300 | 300 | 67 | 0.57 ΔF/F | 30 |  |  | 100 | TAS2R1, -4, -39, -43, -46, -30, and -50 | 0.41 | 0.50 ΔF/F | bitter taste recognition threshold, mode of distribution ([1]; 48 human subjects): 40 nM; threshold [2]: 10 nM; EC50 [3]: 0.39 µM; maximum amplitude [3]: 0.12 ΔF/F; threshold [3]: 300 nM; activation concentration of TAS2R43 relative to TAS2R30 ([7]; fold higher than TAS2R30): 3000 fold |
| CC1=C[C@H]2[C@H]3[C@H](C(C)=C4[C@H]5OC(=O)[C@@H](C)[C@@H]5CC[C@](C)(O)[C@@H]43)[C@@]13[C@@H]2[C@@](C)(O)CC[C@H]1[C@H](C)C(=O)O[C@@H]13 [absinthin] | 40 | 15 |  |  | no response at any concentration |  | 5 fold | 1.3 | 390 |  |  | 11 | 0.63 ΔF/F | 3 | 14 | 0.48 ΔF/F | 10 | TAS2R30 and -46 | 3.1 | 0.41 ΔF/F | threshold [2]: 300 nM; EC50 [3]: 1.3 µM; maximum amplitude [3]: 0.15 ΔF/F; threshold [3]: 1000 nM |
| COC1=C[C@@H](C)[C@@H]2C[C@H]3OC(=O)C[C@H]4C(C)=C(OC)C(=O)[C@H]([C@@]2(C)C1=O)[C@@]34C [quassin] | 38 | 26 | responding in ranges matching phenotypic recognition threshold | most sensitive | least sensitive | intermediate | 8 fold |  |  |  |  |  |  |  |  |  |  |  |  |  | TAS2Rs activated in vitro [7]: only TAS2R30 and TAS2R46 |

Reference: publication PMC4583475, “Receptor Polymorphism and Genomic Structure Interact to Shape Bitter Taste Perception” (PLoS Genetics, 2015)
